Experimental data taken from US20090311344A1, “Dosing Regimen” (priority 2008, published 2009).

Experiment: Multiple dose study in cancer subjects: treatment-emergent (serious) adverse events
Protocol: 46 subjects with cancer receiving platinum-based therapies were enrolled into 3 cohorts (N=16 in Cohort 1, 14 in Cohort 2, and 16 in Cohort 3). The subjects received the TPO mimetic peptide compound or placebo within 2 hours prior to the platinum-based chemotherapy on Day 1 of the first 2 cycles with a 21-day interval between each cycle. In addition to the Day 1 administration, gemcitabine administration was permitted on Day 8 of each cycle. Other chemotherapy medications were limited to dosing on Day 1 of each cycle only. Subjects were followed up for a total of 4 cycles of chemotherapy. Chemotherapy regimen continued beyond the first 4 cycles as per standard of care therapy. In the first cohort, 12 subjects received 1.5 μg/kg the TPO mimetic peptide compound and 4 subjects received placebo. In the second cohort 10 subjects received 3.0 μg/kg the TPO mimetic peptide compound and 4 subjects received placebo. In the third cohort, 12 subjects received 2.25 μg/kg the TPO mimetic peptide compound and 4 subjects received placebo. […] Therefore, a third cohort at a lower dose (2.25 μg/kg) was added to collect additional safety, tolerability, PD, and PK data.

Substance: Methoxypolyethyleneglycol20000-propionyl-L-Isoleucyl-L-Glutamyl-Glycyl-L-Prolyl-L-Threonyl-L-Leucyl-L-Arginyl-L-Glutaminyl-L-2-Naphthylalanyl-L-Leucyl-L-Alanyl-L-Alanyl-L-Arginyl-Sarcosyl-Ne-(methoxypolyethyleneglycol20000-propionyl-L-Isoleucyl-L-Glutamyl-Glycyl-L-Prolyl-L-Threonyl-L-Leucyl-L-Arginyl-L-Glutaminyl-L-2-Naphthylalanyl-L-Leucyl-L-Alanyl-L-Alanyl-L-Arginyl-Sarcosyl-)-Lysinamide [TPO mimetic peptide compound]
- Adverse event: Fatigue (3.0 ug/kg, n of N = 10): 4
- Adverse event: Febrile neutropenia (3.0 ug/kg, n of N = 10): 0
- Adverse event: Folliculitis (3.0 ug/kg, n of N = 10): 0
- Adverse event: Gastrointestinal disorders (3.0 ug/kg, n of N = 10): 6
- Adverse event: General disorders and administration site conditions (3.0 ug/kg, n of N = 10): 6
- Adverse event: General physical health deterioration (3.0 ug/kg, n of N = 10): 0
- Adverse event: Haematocrit decreased (3.0 ug/kg, n of N = 10): 1
- Adverse event: Headache (3.0 ug/kg, n of N = 10): 1
- Adverse event: Hemorrhoids (3.0 ug/kg, n of N = 10): 0
- Adverse event: Hepatobiliary disorders (3.0 ug/kg, n of N = 10): 0
- Adverse event: Hiccups (3.0 ug/kg, n of N = 10): 0
- Adverse event: Hyperbilirubinaemia (3.0 ug/kg, n of N = 10): 0
- Adverse event: Hypersensitivity (3.0 ug/kg, n of N = 10): 1
- Adverse event: Hypertension (3.0 ug/kg, n of N = 10): 0
- Adverse event: Hypoalbuminaemia (3.0 ug/kg, n of N = 10): 0
- Adverse event: Hypocalcaemia (3.0 ug/kg, n of N = 10): 0
- Adverse event: Hypokalaemia (3.0 ug/kg, n of N = 10): 0
- Adverse event: Hypomagnesaemia (3.0 ug/kg, n of N = 10): 0
- Adverse event: Hyponatraemia (3.0 ug/kg, n of N = 10): 0
- Adverse event: Hypophosphataemia (3.0 ug/kg, n of N = 10): 0
- Adverse event: Immune system disorders (3.0 ug/kg, n of N = 10): 1
- Adverse event: Insomnia (3.0 ug/kg, n of N = 10): 1
- Adverse event: Investigations (3.0 ug/kg, n of N = 10): 4
- Adverse event: Leukocytosis (3.0 ug/kg, n of N = 10): 1
- Adverse event: Leukopenia (3.0 ug/kg, n of N = 10): 2
- Adverse event: Lung abscess (3.0 ug/kg, n of N = 10): 0
- Adverse event: Lymphopenia (3.0 ug/kg, n of N = 10): 0
- Adverse event: Metabolism and nutrition disorders (3.0 ug/kg, n of N = 10): 3
- Adverse event: Mucosal inflammation (3.0 ug/kg, n of N = 10): 0
- Adverse event: Musculoskeletal and connective tissue disorders (3.0 ug/kg, n of N = 10): 2
- Adverse event: Nausea (3.0 ug/kg, n of N = 10): 2
- Adverse event: Neoplasms benign, malignant and unspecified (incl cysts and polyps) (3.0 ug/kg, n of N = 10): 0
- Adverse event: Nervous system disorders (3.0 ug/kg, n of N = 10): 2
- Adverse event: Neuropathy peripheral (3.0 ug/kg, n of N = 10): 0
- Adverse event: Neutropenia (3.0 ug/kg, n of N = 10): 3
- Adverse event: Oedema (3.0 ug/kg, n of N = 10): 1
- Adverse event: Oedema peripheral (3.0 ug/kg, n of N = 10): 0
- Adverse event: Pain (3.0 ug/kg, n of N = 10): 0
- Adverse event: Pain in extremity (3.0 ug/kg, n of N = 10): 1
- Adverse event: Paraesthesia (3.0 ug/kg, n of N = 10): 1
- Adverse event: Peripheral motor neuropathy (3.0 ug/kg, n of N = 10): 0
- Adverse event: Peripheral sensory neuropathy (3.0 ug/kg, n of N = 10): 0
- Adverse event: Platelet count decreased (3.0 ug/kg, n of N = 10): 0
- Adverse event: Psychiatric disorders (3.0 ug/kg, n of N = 10): 1
- Adverse event: Pyrexia (3.0 ug/kg, n of N = 10): 2
- Adverse event: Rash (3.0 ug/kg, n of N = 10): 0
- Adverse event: Renal and urinary disorders (3.0 ug/kg, n of N = 10): 0
- Adverse event: Respiratory failure (3.0 ug/kg, n of N = 10): 0
- Adverse event: Respiratory, thoracic and mediastinal disorders (3.0 ug/kg, n of N = 10): 1
- Adverse event: Skin and subcutaneous tissue disorders (3.0 ug/kg, n of N = 10): 3
- Adverse event: Stomatitis (3.0 ug/kg, n of N = 10): 0
- Adverse event: Tachycardia (3.0 ug/kg, n of N = 10): 0
- Adverse event: Thrombocythaemia (3.0 ug/kg, n of N = 10): 0
- Adverse event: Thrombocytopenia (3.0 ug/kg, n of N = 10): 2
- Adverse event: Tinnitus (3.0 ug/kg, n of N = 10): 1
- Adverse event: Vascular disorders (3.0 ug/kg, n of N = 10): 0
- Adverse event: Vomiting (3.0 ug/kg, n of N = 10): 2
- Adverse event: Weight decreased (3.0 ug/kg, n of N = 10): 0
- Serious adverse event: Abdominal pain (3.0 ug/kg, n of N = 10): 0
- Serious adverse event: Acute myocardial infarction (3.0 ug/kg, n of N = 10): 0
- Serious adverse event: Anorexia (3.0 ug/kg, n of N = 10): 0
- Serious adverse event: Atrial fibrillation (3.0 ug/kg, n of N = 10): 0
- Serious adverse event: Blood and lymphatic system disorders (3.0 ug/kg, n of N = 10): 0
- Serious adverse event: Blood creatinine increased (3.0 ug/kg, n of N = 10): 0
- Serious adverse event: Cardiac disorders (3.0 ug/kg, n of N = 10): 0
- Serious adverse event: Cardiac failure (3.0 ug/kg, n of N = 10): 0
- Serious adverse event: Dehydration (3.0 ug/kg, n of N = 10): 0
- Serious adverse event: Dyspnoea (3.0 ug/kg, n of N = 10): 0
- Serious adverse event: Fatigue (3.0 ug/kg, n of N = 10): 0
- Serious adverse event: Febrile neutropenia (3.0 ug/kg, n of N = 10): 0
- Serious adverse event: Gastrointestinal disorders (3.0 ug/kg, n of N = 10): 0
- Serious adverse event: General disorders and administration site conditions (3.0 ug/kg, n of N = 10): 0
- Serious adverse event: Hyponatraemia (3.0 ug/kg, n of N = 10): 0
- Serious adverse event: Investigations (3.0 ug/kg, n of N = 10): 0
- Serious adverse event: Lung abscess (3.0 ug/kg, n of N = 10): 0
- Serious adverse event: Metabolism and nutrition disorders (3.0 ug/kg, n of N = 10): 0
- Serious adverse event: Nausea (3.0 ug/kg, n of N = 10): 0
- Serious adverse event: Neutropenia (3.0 ug/kg, n of N = 10): 0
- Serious adverse event: Pain (3.0 ug/kg, n of N = 10): 0
- Serious adverse event: Pyrexia (3.0 ug/kg, n of N = 10): 0
- Serious adverse event: Respiratory failure (3.0 ug/kg, n of N = 10): 0
- Serious adverse event: Respiratory, thoracic and mediastinal disorders (3.0 ug/kg, n of N = 10): 0
- Serious adverse event: Thrombocythaemia (3.0 ug/kg, n of N = 10): 0
- Serious adverse event: Thrombocytopenia (3.0 ug/kg, n of N = 10): 0
- Serious adverse event: Vomiting (3.0 ug/kg, n of N = 10): 0
- Total no. subjects WITH ADVERSE EVENTS (3.0 ug/kg, n of N = 10): 9
- Total no. subjects WITH SERIOUS ADVERSE EVENTS (3.0 ug/kg, n of N = 10): 0
- relation of adverse events to dose (1.5, 2.25, 3.0 μg/kg): did not appear to be related to increasing doses
- relatedness of all other SAEs to the compound (human, in vivo): unrelated
- relatedness of the SAE thrombocythemia to the compound (one subject): very likely
